# In PMC9055273 (RSC Advances, 2020):
# System: bacteria
# Settings: 10 μM
smiles,measurement,value
c1ccncc1 [pyridine],Inhibition of bacterial growth,did not obviously inhibit bacterial growth
